Source: patent US9164086B2, “Fluorescent dyes with phosphorylated hydroxymethyl groups and their use in light microscopy and imaging techniques” (Max-Planck-Gesellschaft zur Foerderung der Wissenschaften …, priority 2011, dated 2015)
Entries after “also recorded” stand apart in the source; their conditions may differ. One block for each molecule: values may come before it.

Columns and labels:
[1] = commercial dyes, solvent not stated; cited from earlier work
[2] = UV-visible absorption spectra; assay type: physicochemical; conditions: for λabs of the conjugate: conjugate with sheep anti-mouse IG
Method: (§1) UV-visible absorption spectra were recorded on a Varian Cary 4000 UV-Vis spectrophotometer, and fluorescence spectra on a Varian Cary Eclipse fluorescence spectrophotometer. Reactions were carried out with magnetic stirring in Schlenk flasks equipped with septa or reflux condensers with bubble-counters under argon using a standard manifold with vacuum and argon lines. The MICROTOF spectrometer equipped with ESI ion source Apollo and direct injector with LC autosampler Agilent RR 1200 was used for obtaining mass spectra and high resolution mass-spectra (ESI-HRMS). ESI-HRMS were obtained also on APEX IV spectrometer (Bruker). ESI spectra were also obtained on a Varian 500MS spectrometer in some cases. HPLC system (Knauer): Smartline pump 1000 (2×), UV detector 2500, column thermostat 4000 (25° C.), mixing chamber, injection valve with 20 and 100 μL loop for analytical and preparative columns, respectively; 6-port-3-channel switching valve; analytical column: Eurospher-100 C18, 5 μm, 250×4 mm, 1.2 mL/min; preparative column: Eurospher-100-5 C18, 5 μm, 250×8 mm, 4 mL/min; solvent A: water+0.1% v/v trifluoroacetic acid (TFA); solvent B: CH3CN+0.1% v/v TFA; detection at 636 nm (if not stated otherwise). Normal phase analytical TLC was performed on MERCK ready-to-use plates with silica gel 60 (F254).

[3] = Fluorescence spectra, quantum yield and excited state lifetime; assay type: physicochemical; conditions: for Φfl. / Φfl. of the conjugate: as fraction; for fluorescence quantum yield of the antibody conjugates obtained from the dye: after attaching to antibodies; for λem of the conjugate / Φfl. of the conjugate: conjugate with sheep anti-mouse IG
Method: as §1

[4] = Solubility (qualitative); assay type: physicochemical; conditions: for solubility in other solvents and buffers: solvents named in the value

ε · 10^−4 ([2]; PBS (7.4)): 2.27 M^−1 cm^−1
λmax (abs.) ([2]; PBS (7.4)): 436 nm
ε ([2]; PBS buffer at pH 7.4): 22700 M⁻¹ cm⁻¹
Stokes shift [3]: 79 nm
fluorescence quantum yields (in words) [3]: high
Φfl (fluorescence quantum yield) ([3]; PBS (7.4)): 68%
λmax (fl.) ([3]; PBS (7.4)): 515 nm
τ1 (lifetime of the excited state) ([3]; PBS (7.4)): 3.3 ns
Φfl. ([3]; PBS buffer at pH 7.4): 0.68
fluorescence quantum yield of the antibody conjugates obtained from the dye [3]: 30%
Structure (SMILES): CC1(C)C=C(COP(=O)(O)O)c2cc3cc(-c4ccncc4)c(=O)oc3cc2N1CCCC(=O)O [Compound 11]

ε ([2]; MeOH): 33400 M⁻¹ cm⁻¹
ε · 10^−4 ([2]; MeOH): 3.34 M^−1 cm^−1
λmax (abs.) ([2]; MeOH): 437 nm
fluorescence quantum yields (in words) [3]: high
Φfl (fluorescence quantum yield) ([3]; MeOH): 77%
λmax (fl.) ([3]; MeOH): 507 nm
Φfl. ([3]; MeOH): 0.77
Remarks: solubility in water ([4]; water): Low solubility in water
Structure (SMILES): CCOC(=O)CCCN1c2cc3oc(=O)c(-c4ccncc4)cc3cc2C(C)=CC1(C)C [Compound 18, reference compound]

ε ([2]; MeOH): 25900 M⁻¹ cm⁻¹
ε · 10^−4 ([2]; MeOH): 2.59 M^−1 cm^−1
λmax (abs.) ([2]; MeOH): 436 nm
ε · 10^−4 ([2]; PBS (7.4)): 3.12 M^−1 cm^−1
λmax (abs.) ([2]; PBS (7.4)): 436 nm
ε ([2]; PBS buffer at pH 7.4): 31200 M⁻¹ cm⁻¹
fluorescence quantum yields (in words) [3]: high
Φfl (fluorescence quantum yield) ([3]; MeOH): 56%
λmax (fl.) ([3]; MeOH): 510 nm
Φfl. ([3]; MeOH): 0.56
Φfl (fluorescence quantum yield) ([3]; PBS (7.4)): 57%
λmax (fl.) ([3]; PBS (7.4)): 515 nm
Φfl. ([3]; PBS buffer at pH 7.4): 0.57
fluorescence quantum yield of the antibody conjugates obtained from the dye [3]: 18%
Structure (SMILES): CC1(C)C=C(CS(=O)(=O)O)c2cc3cc(-c4ccncc4)c(=O)oc3cc2N1CCCC(=O)O [Compound 20-H, reference compound]

λabs of the conjugate ([2]; PBS buffer at pH 7.4): 437 nm
λem of the conjugate ([3]; PBS buffer at pH 7.4): 512 nm
Φfl. of the conjugate ([3]; PBS buffer at pH 7.4): 0.18
Structure (SMILES): CC1(C)C=C(CS(=O)(=O)O)c2cc3cc(-c4ccncc4)c(=O)oc3cc2N1CCCC(=O)ON1C(=O)CCC1=O [Compound 20-NHS, reference compound]

ε · 10^−4 ([2]; H2O): 7.5 M^−1 cm^−1
λmax (abs.) ([2]; H2O): 635 nm
Φfl (fluorescence quantum yield) ([3]; H2O): 83%
λmax (fl.) ([3]; H2O): 655 nm
τ1 (lifetime of the excited state) ([3]; H2O, monoexponential fit): 3.0 ns
fluorescence quantum yield of the antibody conjugates obtained from the dye [3]: 51%
Structure (SMILES): CN(CCCC(=O)O)C(=O)c1c(F)c(F)c(F)c(F)c1C1=c2cc3c4c(c2Oc2c1cc1c5c2CCCN5C(C)(C)C=C1COP(=O)(O)O)CCC[N+]=4C(C)(C)C=C3COP(=O)([O-])O [Compound 26-H]
solubility in other solvents and buffers [4]: well-soluble in aq. NaHCO3, alkali, Et3N, and PBS buffers, MeOH; also recorded: insoluble in acetone, CH3CN, chloroform

The next lines start with the molecule.

Structure (SMILES): CC1(C)C=C(CS(=O)(=O)O)c2cc3c(C(F)(F)F)cc(=O)oc3cc2N1CCCCCC(=O)ON1C(=O)CCC1=O.CCN(CC)CC [Alexa Fluor™ 430]
absorption maximum [1]: 434 nm
emission maximum [1]: 539 nm

Structure (SMILES): CC(C)(C)OC(=O)CCCN1c2cc3oc(=O)c(-c4ccncc4)cc3cc2C(COP(=O)(OC(C)(C)C)OC(C)(C)C)=CC1(C)C [Compound 10]
ε ([2]; MeOH): 30700 M⁻¹ cm⁻¹
ε · 10^−4 ([2]; MeOH): 3.07 M^−1 cm^−1
λmax (abs.) ([2]; MeOH): 430 nm
fluorescence quantum yields (in words) [3]: high
Φfl (fluorescence quantum yield) ([3]; MeOH): 82%
λmax (fl.) ([3]; MeOH): 501 nm
Φfl. ([3]; MeOH): 0.82
Remarks: solubility in water ([4]; water): Low solubility in water

Structure (SMILES): CC1(C)C=C(COP(=O)(O)O)c2cc3cc(-c4ccncc4)c(=O)oc3cc2N1CCCC(=O)ON1C(=O)CCC1=O [Compound 12]
λabs of the conjugate ([2]; PBS buffer at pH 7.4): 439 nm
λem of the conjugate ([3]; PBS buffer at pH 7.4): 513 nm
Φfl. of the conjugate ([3]; PBS buffer at pH 7.4): 0.30

Structure (SMILES): CN(CCCC(=O)O)C(=O)c1c(F)c(F)c(F)c(F)c1C1=c2cc3c4c(c2Oc2c1cc1c5c2CCCN5C(C)(C)C=C1CO)CCC[N+]=4C(C)(C)C=C3CO [Compound 24-H]
ε · 10^−4 ([2]; H2O): 8.6 M^−1 cm^−1
λmax (abs.) ([2]; H2O): 632 nm
Φfl (fluorescence quantum yield) ([3]; H2O): 85%
λmax (fl.) ([3]; H2O): 654 nm
fluorescence quantum yield of the antibody conjugates obtained from the dye [3]: 66%
solubility in aqueous buffers ([4]; aqueous buffers): low solubility in aqueous buffers
solubility in other solvents and buffers [4]: well-soluble in MeOH, CH3CN, and chlorinated solvents
Remarks: solubility in water ([4]; water): Limited solubility in water
solubility in water ([4]; water): slightly soluble in water
